Data reported in ChEMBL document CHEMBL4028883 (J Med Chem, 2017).
Values after ≈ are worked out from the molar mass of the structure shown.

Key:
[1] = Clearance in rat at 0.5 mg/kg; format: ADME, organism-based; conditions: in vivo
[2] = Chemical stability of the compound in phosphate buffer at pH 6.5 at 50 degC after 90 days by HPLC method; format: physicochemical; conditions: read-out: Stability
[3] = Total AUC in rat at 0.5 mg/kg; format: ADME, organism-based; set-up: dose 0.5 mg/kg, time AUCmax; conditions: in vivo
[4] = Volume of distribution at steady state in rabbit at 0.5 mg/kg; format: ADME, organism-based, Oryctolagus cuniculus; conditions: in vivo, read-out: Vdss
[5] = Aqueous solubility of the compound at pH 6.7; format: physicochemical; conditions: aqueous medium
[6] = Chemical stability of the compound in phosphate buffer at pH 7.4 at 37 degC after 90 days by HPLC method; format: physicochemical; conditions: read-out: Stability
[7] = Chemical stability of the compound in Tris buffer at pH 8 at 50 degC after 90 days by HPLC method; format: physicochemical; conditions: read-out: Stability
[8] = Mean residence time in rat at 0.5 mg/kg; format: ADME, organism-based; conditions: in vivo
[9] = Clearance in cynomolgus monkey at 2.03 mg/kg; format: ADME, organism-based, Macaca fascicularis; conditions: in vivo
[10] = Clearance in rabbit at 0.5 mg/kg; format: ADME, organism-based, Oryctolagus cuniculus; conditions: in vivo
[11] = Half life in rat at 0.5 mg/kg; format: ADME, organism-based; conditions: in vivo
[12] = Total AUC in rabbit at 0.5 mg/kg; format: ADME, organism-based, Oryctolagus cuniculus; set-up: dose 0.5 mg/kg, time AUCmax; conditions: in vivo
[13] = Half life in cynomolgus monkey at 2.03 mg/kg; format: ADME, organism-based, Macaca fascicularis; conditions: in vivo
[14] = Solubility of the compound in Tris buffer at pH 8; format: physicochemical
[15] = Volume of distribution at steady state in cynomolgus monkey at 2.03 mg/kg; format: ADME, organism-based, Macaca fascicularis; conditions: in vivo, read-out: Vdss
[16] = Chemical stability of the compound in phosphate buffer at pH 7.4 at 25 degC after 90 days by HPLC method; format: physicochemical; conditions: read-out: Stability
[17] = Acid dissociation constant, pKa of the compound; format: physicochemical
[18] = in vivo; conditions: rat, iv
[19] = Half life in dog liver microsomes; format: ADME, Canis lupus familiaris, microsome
[20] = in vivo; conditions: rat, iv; remark: listed apart in the source
[21] = Total AUC in cynomolgus monkey at 2.03 mg/kg; format: ADME, organism-based, Macaca fascicularis; set-up: dose 2.03 mg/kg, time AUCmax; conditions: in vivo
[22] = Total AUC in dog at 4.75 mg/kg; format: ADME, organism-based, Canis lupus familiaris; set-up: dose 4.75 mg/kg, time AUCmax; conditions: in vivo
[23] = Aqueous solubility of the compound at pH 8.5; format: physicochemical; conditions: aqueous medium
[24] = in vitro; conditions: human, liver microsomes
[25] = Mean residence time in cynomolgus monkey at 2.03 mg/kg; format: ADME, organism-based, Macaca fascicularis; conditions: in vivo
[26] = in vitro; conditions: rat, liver microsomes
[27] = physchem; conditions: phosphate buffer, pH 6.5
[28] = in vivo; conditions: rat, iv; remark: listed apart in the source
[29] = Lipophilicity, log D of the compound by HPLC method; format: physicochemical
[30] = Chemical stability of the compound in phosphate buffer at pH 7.4 at 50 degC after 90 days by HPLC method; format: physicochemical; conditions: read-out: Stability
[31] = Volume of distribution at steady state in rat at 0.5 mg/kg; format: ADME, organism-based; conditions: in vivo, read-out: Vdss
[32] = Half life in rabbit at 0.5 mg/kg; format: ADME, organism-based, Oryctolagus cuniculus; conditions: in vivo
[33] = Aqueous solubility of the compound at pH 8.3; format: physicochemical; conditions: aqueous medium
[34] = Chemical stability of the compound in phosphate buffer at pH 6.5 at 25 degC after 90 days by HPLC method; format: physicochemical; conditions: read-out: Stability
[35] = Clearance in dog at 4.75 mg/kg; format: ADME, organism-based, Canis lupus familiaris; conditions: in vivo
[36] = Mean residence time in rabbit at 0.5 mg/kg; format: ADME, organism-based, Oryctolagus cuniculus; conditions: in vivo
[37] = Half life in dog at 4.75 mg/kg; format: ADME, organism-based, Canis lupus familiaris; conditions: in vivo
[38] = Chemical stability of the compound in Tris buffer at pH 8 at 25 degC after 90 days by HPLC method; format: physicochemical; conditions: read-out: Stability
[39] = in vivo; conditions: rat, iv; remark: listed apart in the source
[40] = Chemical stability of the compound in Tris buffer at pH 8 at 37 degC after 90 days by HPLC method; format: physicochemical; conditions: read-out: Stability
[41] = Base dissociation constant, pKa of the compound; format: physicochemical
[42] = Solubility of the compound in phosphate buffer at pH 7.4; format: physicochemical
[43] = Chemical stability of the compound in phosphate buffer at pH 6.5 at 37 degC after 90 days by HPLC method; format: physicochemical; conditions: read-out: Stability
[44] = Volume of distribution at steady state in dog at 4.75 mg/kg; format: ADME, organism-based, Canis lupus familiaris; conditions: in vivo, read-out: Vdss

- clearance [1]: 31 mL/min/kg
- remaining at […] [2]: 95.4%
- AUC [3]: 0.441 µM·h
- Vd [4]: 0.71 L/kg
- solubility [5]: 260 µg/mL (≈ 394 µM)
- remaining at […] [6]: 99%
- remaining at […] [7]: 94%
- MRT [8]: < 60 min
- clearance [9]: 31 mL/min/kg
- clearance [10]: 43 mL/min/kg
- half-life [11]: 13.2 min
- AUC [12]: 0.27 µM·h
- half-life [13]: 46.8 min
- solubility [14]: 11000 µg/mL (≈ 16700 µM)
- Vd [15]: 1.16 L/kg
- remaining at […] [16]: 100%
- pKa [17]: 4.1
- clearance [18]: 16 mL/min/kg
- half-life [19]: 120 min
- AUC [20]: 0.309 µM·h
- AUC [21]: 1.59 µM·h
- AUC [22]: 7.76 µM·h
- solubility [23]: > 100000 µg/mL
- half-life [24]: 108 to 120 min
- MRT [25]: < 60 min
- half-life [26]: 59 min
- solubility at 24 h [27]: 880 µg/mL (≈ 1340 µM)
- Vd [28]: 0.75 L/kg
- logD [29]: 1.4
- remaining at […] [30]: 94.6%
- Vd [31]: 0.32 L/kg
- half-life [32]: 36 min
- solubility [33]: > 25000 µg/mL
- remaining at […] [34]: 99.9%
- clearance [35]: 15 mL/min/kg
- MRT [36]: < 60 min
- half-life [37]: 63 min
- remaining at […] [38]: 99%
- half-life [39]: 52.8 min
- remaining at […] [40]: 99.7%
- pKa [41]: 4.7
- solubility [42]: 1500 µg/mL (≈ 2280 µM)
- remaining at […] [43]: 99.8%
- Vd [44]: 1.02 L/kg
Compound: CN1CCN(c2cccc3c2CCN(C(=O)/C=C/c2c(-n4cnnn4)ccc(Cl)c2F)[C@@H]3C(=O)Nc2ccc(C(=O)O)cc2)C(=O)C1 [BMS-962212]
